Reference: patent US20100298141A1, “SUBSTITUTED PYRIDINE N-OXIDE HERBICIDES” (E. I. DU PONT DE NEMOURS AND COMPANY, priority 2007, published 2010)

Legend:
[1] = test system: crabgrass; assay: Test A pre-/postemergence greenhouse test; type: in vivo, Digitaria sanguinalis; conditions: for Plant response rating, Crabgrass, Large: 0 to 100 scale where 0 is no effect and 100 is complete control; for Crabgrass, Large plant response rating: 0 to 100 scale
In short: (§1)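 Pre: directed soil spray on seeded loam/sand. Post: foliar spray, plants 2–10 cm, 1–2 leaf stage, applied concurrently. Vehicle: non-phytotoxic solvent + surfactant. Greenhouse ~10 d; visual injury rating vs untreated controls.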

[2] = test system: giant foxtail; assay: Test A pre-/postemergence greenhouse test; type: in vivo, Setaria faberi; conditions: for Plant response rating, Foxtail, Giant: 0 to 100 scale where 0 is no effect and 100 is complete control; for Foxtail, Giant plant response rating: 0 to 100 scale
In short: as §1

[3] = test system: morningglory; assay: Test A pre-/postemergence greenhouse test; type: in vivo, Ipomoea spp.; conditions: for Plant response rating, Morningglory: 0 to 100 scale where 0 is no effect and 100 is complete control; for Morningglory plant response rating: 0 to 100 scale
In short: as §1

[4] = test system: wheat; assay: Test A pre-/postemergence greenhouse test; type: in vivo, Triticum aestivum; conditions: for Plant response rating, Wheat: 0 to 100 scale where 0 is no effect and 100 is complete control; for Wheat plant response rating: 0 to 100 scale
In short: as §1

[5] = test system: corn; assay: Test A pre-/postemergence greenhouse test; type: in vivo, Zea mays; conditions: for Plant response rating, Corn: 0 to 100 scale where 0 is no effect and 100 is complete control; for Corn plant response rating: 0 to 100 scale
In short: as §1

[6] = test system: Italian ryegrass; assay: Test C pre-/postemergence test; type: in vivo, Lolium multiflorum; conditions: for Plant response rating, Ryegrass, Italian: 31 g ai/ha, scale 0 to 100 (0 no effect, 100 complete control)
In short: (§2)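 Compounds in a non-phytotoxic solvent with surfactant applied preemergence to seeded pots and, at the same time, postemergence to plants 2–18 cm tall (1- to 4-leaf stage). Paddy tests: pots flooded to 3 cm, compound applied into the water, depth held throughout.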

[7] = test system: wheat; assay: Test C pre-/postemergence test; type: in vivo, Triticum aestivum; conditions: for Plant response rating, Wheat: 31 g ai/ha, scale 0 to 100 (0 no effect, 100 complete control)
In short: as §2

[8] = test system: catchweed bedstraw; assay: Test C pre-/postemergence test; type: in vivo, Galium aparine
In short: as §2

[9] = test system: bermudagrass; assay: Test C pre-/postemergence test; type: in vivo, Cynodon dactylon; conditions: for Plant response rating, Bermudagrass: 31 g ai/ha
In short: as §2

[10] = test system: Goosegrass; assay: Test C pre-/postemergence test; type: in vivo, Eleusin indica; conditions: for Plant response rating, Goosegrass: 31 g ai/ha, scale 0 to 100 (0 no effect, 100 complete control)
In short: as §2

[11] = test system: morningglory; assay: Test C pre-/postemergence test; type: in vivo, Ipomoea coccinea; conditions: for Plant response rating, Morningglory: 31 g ai/ha, scale 0 to 100 (0 no effect, 100 complete control)
In short: as §2

[12] = test system: yellow nutsedge; assay: Test C pre-/postemergence test; type: in vivo, Cyperus esculentus; conditions: for Plant response rating, Nutsedge, Yellow: 31 g ai/ha, scale 0 to 100 (0 no effect, 100 complete control)
In short: as §2

[13] = test system: pigweed; assay: Test C pre-/postemergence test; type: in vivo, Amaranthus retroflexus; conditions: for Plant response rating, Pigweed: 31 g ai/ha, scale 0 to 100 (0 no effect, 100 complete control)
In short: as §2

[14] = test system: soybean; assay: Test C pre-/postemergence test; type: in vivo, Glycine max; conditions: for Plant response rating, Soybean: 31 g ai/ha, scale 0 to 100 (0 no effect, 100 complete control)
In short: as §2

[15] = test system: common (oilseed) sunflower; assay: Test C pre-/postemergence test; type: in vivo, Helianthus annuus; conditions: for Plant response rating, Sunflower: 31 g ai/ha, scale 0 to 100 (0 no effect, 100 complete control)
In short: as §2

[16] = test system: umbrella sedge; assay: Test C flooded paddy test; type: in vivo, Cyperus difformis; conditions: Flood
In short: (§3)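 Pots were flooded to 3 cm above the soil surface at treatment, compound applied directly to the paddy water, and that depth held throughout. Plants were kept in a greenhouse for 13 to 15 days, then visually rated against untreated controls.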

[17] = test system: barnyardgrass; assay: Test C flooded paddy test; type: in vivo, Echinochloa crus-galli; conditions: Flood
In short: as §3

[18] = Postemergence, 500 g ai/ha, 0 is no effect, 100 is complete control
[19] = Preemergence, 125 g ai/ha, 0 no effect, 100 complete control
[20] = Preemergence, 500 g ai/ha, 0 no effect, 100 complete control
[21] = 62 g ai/ha, Preemergence, scale 0 to 100
[22] = 125 g ai/ha, preemergence, scale 0 (no effect) to 100 (complete control)
[23] = preemergence, 250 g ai/ha, scale 0 (no effect) to 100 (complete control)
[24] = 62 g ai/ha, Preemergence, scale 0 to 100 (0 no effect, 100 complete control)
[25] = Preemergence, scale 0 to 100 (0 no effect, 100 complete control)
[26] = 62 g ai/ha, scale 0 to 100 (0 no effect, 100 complete control)
[27] = 250 g ai/ha, scale 0 to 100, 0 no effect, 100 complete control, 13 to 15 days
[28] = 31 g ai/ha, scale 0 to 100 (0 no effect, 100 complete control)
[29] = 125 g ai/ha, scale 0 to 100, 0 no effect, 100 complete control, 13 to 15 days

C#CCOc1c(CS(=O)(=O)c2cccc[n+]2[O-])c(C(F)(F)F)nn1C [Compound 103]
Plant response rating, Crabgrass, Large ([1]; Postemergence, 125 g ai/ha): 70
Crabgrass, Large plant response rating [1, 18]: 90
Crabgrass, Large plant response rating [1, 19]: 70
Crabgrass, Large plant response rating [1, 20]: 100
Plant response rating, Foxtail, Giant ([2]; Postemergence, 125 g ai/ha): 80
Foxtail, Giant plant response rating [2, 18]: 90
Foxtail, Giant plant response rating [2, 19]: 80
Foxtail, Giant plant response rating [2, 20]: 100
Plant response rating, Morningglory ([3]; Postemergence, 125 g ai/ha): 20
Morningglory plant response rating [3, 18]: 70
Morningglory plant response rating [3, 19]: 0
Morningglory plant response rating [3, 20]: 70
Plant response rating, Wheat ([4]; Postemergence, 125 g ai/ha): 20
Wheat plant response rating [4, 18]: 50
Wheat plant response rating [4, 19]: 10
Wheat plant response rating [4, 20]: 80
Plant response rating, Corn ([5]; Postemergence, 125 g ai/ha): 0
Corn plant response rating [5, 18]: 60
Corn plant response rating [5, 19]: 0
Corn plant response rating [5, 20]: 60
Ryegrass, Italian plant response rating [6, 21]: 50
Ryegrass, Italian plant response rating [6, 22]: 55
Plant response rating, Ryegrass, Italian ([6]; Preemergence): 0
Ryegrass, Italian plant response rating [6, 23]: 60
Wheat plant response rating [7, 21]: 0
Wheat plant response rating [7, 22]: 25
Plant response rating, Wheat ([7]; Preemergence): 0
Wheat plant response rating [7, 23]: 98
Galium plant response rating [8, 21]: 98
Galium plant response rating [8, 22]: 98
Galium plant response rating [8, 23]: 100
Bermudagrass plant response rating [9, 24]: 100
Bermudagrass plant response rating [9, 22]: 100
Plant response rating, Bermudagrass [9, 25]: 40
Bermudagrass plant response rating [9, 23]: 100
Goosegrass plant response rating [10, 21]: 100
Goosegrass plant response rating [10, 22]: 100
Plant response rating, Goosegrass ([10]; Preemergence): 50
Goosegrass plant response rating [10, 23]: 100
Morningglory plant response rating [11, 21]: 55
Morningglory plant response rating [11, 22]: 80
Plant response rating, Morningglory ([11]; Preemergence): 0
Morningglory plant response rating [11, 23]: 98
Nutsedge, Yellow plant response rating [12, 21]: 70
Nutsedge, Yellow plant response rating [12, 22]: 85
Plant response rating, Nutsedge, Yellow ([12]; Preemergence): 0
Nutsedge, Yellow plant response rating [12, 23]: 85
Pigweed plant response rating [13, 21]: 100
Pigweed plant response rating [13, 22]: 100
Plant response rating, Pigweed ([13]; Preemergence): 60
Pigweed plant response rating [13, 23]: 100
Soybean plant response rating [14, 21]: 0
Soybean plant response rating [14, 22]: 10
Plant response rating, Soybean ([14]; Preemergence): 0
Soybean plant response rating [14, 23]: 50
Sunflower plant response rating [15, 21]: 35
Sunflower plant response rating [15, 22]: 50
Plant response rating, Sunflower ([15]; Preemergence): 35
Sunflower plant response rating [15, 23]: 90
Plant response rating, Sedge, Umbrella [16, 26]: 0
Plant response rating, Sedge, Umbrella [16, 27]: 55
Plant response rating, Barnyardgrass [17, 26]: 0
Plant response rating, Barnyardgrass [17, 27]: 0

CC(C)c1cc[n+]([O-])c([S+]([O-])Cc2c(C(F)(F)F)nn(C)c2OC(F)F)c1 (centres unmarked) [Compound 109]
Plant response rating, Crabgrass, Large ([1]; Postemergence, 125 g ai/ha): 60
Crabgrass, Large plant response rating [1, 18]: 90
Crabgrass, Large plant response rating [1, 19]: 90
Crabgrass, Large plant response rating [1, 20]: 100
Plant response rating, Foxtail, Giant ([2]; Postemergence, 125 g ai/ha): 80
Foxtail, Giant plant response rating [2, 18]: 90
Foxtail, Giant plant response rating [2, 19]: 90
Foxtail, Giant plant response rating [2, 20]: 100
Plant response rating, Morningglory ([3]; Postemergence, 125 g ai/ha): 60
Morningglory plant response rating [3, 18]: 90
Morningglory plant response rating [3, 19]: 60
Morningglory plant response rating [3, 20]: 100
Plant response rating, Wheat ([4]; Postemergence, 125 g ai/ha): 60
Wheat plant response rating [4, 18]: 70
Wheat plant response rating [4, 19]: 60
Wheat plant response rating [4, 20]: 100
Plant response rating, Corn ([5]; Postemergence, 125 g ai/ha): 60
Corn plant response rating [5, 18]: 80
Corn plant response rating [5, 19]: 50
Corn plant response rating [5, 20]: 90
Ryegrass, Italian plant response rating [6, 21]: 0
Ryegrass, Italian plant response rating [6, 22]: 0
Plant response rating, Ryegrass, Italian ([6]; Preemergence): 0
Ryegrass, Italian plant response rating [6, 23]: 0
Wheat plant response rating [7, 21]: 50
Wheat plant response rating [7, 22]: 65
Plant response rating, Wheat ([7]; Preemergence): 10
Wheat plant response rating [7, 23]: 100
Galium plant response rating [8, 21]: 90
Galium plant response rating [8, 22]: 100
Plant response rating, Galium ([8]; Preemergence, 31 g ai/ha, scale 0 to 100 (0 no effect, 100 complete control)): 60
Galium plant response rating [8, 23]: 100
Bermudagrass plant response rating [9, 24]: 100
Bermudagrass plant response rating [9, 22]: 100
Plant response rating, Bermudagrass [9, 25]: 95
Bermudagrass plant response rating [9, 23]: 100
Goosegrass plant response rating [10, 21]: 100
Goosegrass plant response rating [10, 22]: 100
Plant response rating, Goosegrass ([10]; Preemergence): 100
Goosegrass plant response rating [10, 23]: 100
Morningglory plant response rating [11, 21]: 100
Morningglory plant response rating [11, 22]: 100
Plant response rating, Morningglory ([11]; Preemergence): 80
Morningglory plant response rating [11, 23]: 100
Nutsedge, Yellow plant response rating [12, 21]: 80
Nutsedge, Yellow plant response rating [12, 22]: 98
Plant response rating, Nutsedge, Yellow ([12]; Preemergence): 80
Nutsedge, Yellow plant response rating [12, 23]: 100
Pigweed plant response rating [13, 21]: 100
Pigweed plant response rating [13, 22]: 100
Plant response rating, Pigweed ([13]; Preemergence): 100
Pigweed plant response rating [13, 23]: 100
Soybean plant response rating [14, 21]: 50
Soybean plant response rating [14, 22]: 85
Plant response rating, Soybean ([14]; Preemergence): 45
Soybean plant response rating [14, 23]: 95
Sunflower plant response rating [15, 21]: 50
Sunflower plant response rating [15, 22]: 55
Plant response rating, Sunflower ([15]; Preemergence): 50
Sunflower plant response rating [15, 23]: 75
Plant response rating, Sedge, Umbrella [16, 28]: 0
Plant response rating, Sedge, Umbrella [16, 26]: 0
Plant response rating, Sedge, Umbrella [16, 29]: 50
Plant response rating, Sedge, Umbrella [16, 27]: 75
Plant response rating, Barnyardgrass [17, 28]: 0
Plant response rating, Barnyardgrass [17, 26]: 20
Plant response rating, Barnyardgrass [17, 29]: 20
Plant response rating, Barnyardgrass [17, 27]: 20
